In article PMC4907692, “Engineering vanilloid-sensitivity into the rat TRPV2 channel” (eLife, 2016):

Assays:
TRPV2 F472S/L510T = molecular target: T1, TRPV2 F472S/L510T (Rattus norvegicus, UniProt Q9WUD2, F472S/L510T); assay: Two-electrode voltage-clamp in Xenopus oocytes, TRPV2 F472S/L510T; type: cell-based; conditions: 100 nM RTx
T1 construct: expressed in transfected cells; host or cells: Xenopus oocytes (cRNA injection)
Description: To further investigate the putative vanilloid binding pocket in TRPV1, we inspected the cryo-EM structure of TRPV1, looking for residues that are located nearby to the putative RTx density (Figure 1B; regions/residues highlighted in yellow) and that differ between TRPV1 and TRPV2 channels (Figure 3—figure supplement 1; regions highlighted in magenta). […] To quantify the contribution of each of these residues to TRPV1 channel activation by RTx under our experimental conditions, we mutated each to the corresponding residue in TRPV2. We then expressed each construct in oocytes and used the two electrode voltage-clamp technique to study activation by RTx and by the non-specific TRPV channel activator 2-APB. We recorded time courses for channel activation by each agonist while stepping the membrane potential from −60 to +60 mV every 3 s from a holding potential of 0 mV using an external recording solution containing 100 mM KCl (internal K^+ concentration in a healthy oocyte is 100 mM) (Figure 3A, left). We also recorded current-voltage (I-V) relations by stepping over a wider range of voltages in the absence and presence of activators, or in the presence of ruthenium red (RR), a non-specific inhibitor of TRP channels (Figure 3A, right). […]

TRPV2 QM = molecular target: T2, TRPV2 QM (Rattus norvegicus, UniProt Q9WUD2, F472S/L507M/L510T/Q530E); assay: Single channel inside-out patch recording of TRPV2 QM in HEK293 cells; type: cell-based; conditions: 100 nM RTx, patch containing a single channel, recording of approximately 8 min
T2 construct: expressed in transfected cells; host or cells: Xenopus oocytes (cRNA injection)
T2 sequence (Q9WUD2 1-761 F472S/L507M/L510T/Q530E): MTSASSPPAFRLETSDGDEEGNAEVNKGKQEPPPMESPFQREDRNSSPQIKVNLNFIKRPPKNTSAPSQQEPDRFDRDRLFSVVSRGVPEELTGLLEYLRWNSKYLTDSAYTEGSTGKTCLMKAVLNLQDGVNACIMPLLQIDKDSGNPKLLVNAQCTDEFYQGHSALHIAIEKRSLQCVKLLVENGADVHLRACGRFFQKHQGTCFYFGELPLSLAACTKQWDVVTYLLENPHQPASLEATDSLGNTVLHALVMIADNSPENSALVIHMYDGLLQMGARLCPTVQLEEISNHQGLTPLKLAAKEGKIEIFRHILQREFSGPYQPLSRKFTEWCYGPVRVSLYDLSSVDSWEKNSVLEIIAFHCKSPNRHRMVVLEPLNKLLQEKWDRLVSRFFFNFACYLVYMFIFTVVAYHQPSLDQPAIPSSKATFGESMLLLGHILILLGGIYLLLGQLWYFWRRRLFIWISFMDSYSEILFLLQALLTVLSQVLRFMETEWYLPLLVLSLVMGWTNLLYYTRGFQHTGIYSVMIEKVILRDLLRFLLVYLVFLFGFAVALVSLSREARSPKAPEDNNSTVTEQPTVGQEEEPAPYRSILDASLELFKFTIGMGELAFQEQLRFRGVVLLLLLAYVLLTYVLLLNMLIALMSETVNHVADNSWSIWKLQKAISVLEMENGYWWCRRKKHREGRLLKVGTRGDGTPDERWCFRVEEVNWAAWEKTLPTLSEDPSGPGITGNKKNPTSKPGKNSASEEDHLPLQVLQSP

T1 sequence (Q9WUD2 whole entry F472S/L510T): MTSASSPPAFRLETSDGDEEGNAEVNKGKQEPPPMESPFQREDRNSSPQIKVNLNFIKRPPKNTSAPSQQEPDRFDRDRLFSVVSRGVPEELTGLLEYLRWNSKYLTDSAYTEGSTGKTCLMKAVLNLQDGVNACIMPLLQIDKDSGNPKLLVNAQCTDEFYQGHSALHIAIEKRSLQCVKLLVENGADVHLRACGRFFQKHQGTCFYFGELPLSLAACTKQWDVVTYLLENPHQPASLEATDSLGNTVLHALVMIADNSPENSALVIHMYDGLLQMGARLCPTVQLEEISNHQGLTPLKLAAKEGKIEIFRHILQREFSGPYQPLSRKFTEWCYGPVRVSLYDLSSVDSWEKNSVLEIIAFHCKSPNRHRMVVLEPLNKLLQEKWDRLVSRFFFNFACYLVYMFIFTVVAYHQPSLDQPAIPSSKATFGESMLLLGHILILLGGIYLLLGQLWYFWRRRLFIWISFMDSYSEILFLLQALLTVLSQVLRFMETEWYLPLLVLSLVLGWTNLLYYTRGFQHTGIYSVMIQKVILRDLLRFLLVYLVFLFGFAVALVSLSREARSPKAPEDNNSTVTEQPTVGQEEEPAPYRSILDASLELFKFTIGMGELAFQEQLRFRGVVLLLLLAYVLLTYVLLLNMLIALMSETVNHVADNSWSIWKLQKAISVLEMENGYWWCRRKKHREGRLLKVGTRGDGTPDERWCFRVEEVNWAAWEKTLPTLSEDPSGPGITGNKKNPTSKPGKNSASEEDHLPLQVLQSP

C=C(C)[C@]12C[C@@H](C)[C@@]34O[C@](Cc5ccccc5)(O[C@@H]1[C@@H]3C=C(COC(=O)Cc1ccc(O)c(OC)c1)C[C@]1(O)C(=O)C(C)=C[C@@H]41)O2 [RTx, resiniferatoxin]
channel activation by RTx (TRPV2 F472S/L510T): sensitive to RTx
open probability (Po) (TRPV2 QM): ~1
